Molecular target: Sulfolobus solfataricus Sso7d (rcSso7d, SEQ ID NO: 1) variant clone E, SEQ ID NO: 398 (Saccharolobus solfataricus, UniProt P61991, A45G/K22H/K28Q/K40A/K7T/K9Q/M29W/R43W/S31W/T33I/T41K/V26W/W24R)
Experiment: biolayer interferometry, clone E immobilized on Ni-NTA tip
Assay type: binding
Conditions: 1 uM solution of the sugar; FIG. 2E
Excerpt: The traces show an increase in nm as sugar starts binding to protein on the tip, then a decrease in nm as the tip is moved from the sugar solution to buffer only.

Sulfolobus solfataricus Sso7d (rcSso7d, SEQ ID NO: 1) variant clone E, SEQ ID NO: 398, sequence (P61991 other isoform, or with tags, fused parts or gaps with the stated changes): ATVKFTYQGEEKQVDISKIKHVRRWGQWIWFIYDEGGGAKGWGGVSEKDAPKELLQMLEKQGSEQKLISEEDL

CC(=O)N[C@@H]1[C@@H](O[C@@H]2O[C@H](CO)[C@H](O)[C@H](O)[C@H]2O)[C@@H](O)[C@@H](CO)O[C@@H]1O [TF antigen, Galβ1-3GalNAcα]
binding (biolayer interferometry traces): bound
